Data on ten molecules can be found in PubChem BioAssay (NCI).

“And” between values parts separate entries of the source, which are not always exact repeats. Identical values can stand only once.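 Exposure lasted 48 hours, with cells grown in 96-well plates and compounds tested at five concentrations. At the GI50, growth is halved. TGI is the concentration that stops growth completely.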

Holding throughout (assay): NCI tumour cell line growth inhibition, 48 h
In assay [1] the test system is A498 renal.
Assay [2] deals with HCT-116 colon.
Assay [3] concerns HT29 colon.
Assay [4] relates to NCI-H226 lung.
In assay [5] the test system is NCI-H460 lung.
The subject of assay [6] is OVCAR-8 ovarian.
The subject of assay [7] is SF-268 CNS.
Assay [8] has as its system SF-295 CNS.
Assay [9] concerns SF-539 CNS.
In assay [10] the test system is UACC-257 melanoma.

With `O=C(O)c1c(Cl)c(Cl)c(Cl)c(Cl)c1-c1c2cc(I)c(=O)c(I)c-2oc2c(I)c(O)c(I)cc12`, the GI50 in assay [1] is 29.5 µM and 26.1 µM; in [2], 45.4 µM and 37.2 µM; in assay [3], 52.6 µM; in assay [4] it was 79.7 µM and 38.8 µM; in [5] it was 58.8 µM; in assay [6] it was 58.2 µM and 47.4 µM. In addition, the GI50 in assay [7] was 41.3 µM and 36.8 µM; in assay [8], 38.1 µM; in [9], 32.7 µM and 34.6 µM; in assay [10], 53.5 µM. For the same molecule, the TGI is 64.2 µM in [1]; 81.5 µM in assay [2]; 154 µM in assay [3]; 90.9 µM in assay [4]; > 200 µM in [5]; 115 µM in [6]. Further, the TGI in assay [7] worked out at 81.2 µM; in [8] it was 78.7 µM; in [9] it was 89.7 µM; in [10], 163 µM.
Regarding `COc1cc(C(=O)c2c(-c3ccccc3)oc3ccccc23)cc(OC)c1O`, the GI50 was 2.09 µM in assay [1]; 1.04 µM in assay [2]; 9.78 µM in assay [3]; 8.14 µM in [4]; 2.22 µM in [5]; 4.8 µM in assay [6]. Further, the GI50 in [7] was 3.4 µM; in assay [8], 2.41 µM; in assay [9], 1.64 µM; in assay [10], 16 µM. The TGI in assay [1] was 5.76 µM; in assay [2] it was 12.5 µM; in assay [3] it was > 100 µM; in assay [4] it was 37.2 µM; in assay [5], 10.7 µM; in assay [6], 83.9 µM. Moreover, the TGI is 18.6 µM in [7], 6.94 µM in assay [8], 5.63 µM in assay [9] and 64.3 µM in [10].
With `O=C(/C=C/c1cccs1)Nc1ncc(Cc2ccccc2F)s1`, the GI50 is 0.175 µM in [1]; 0.273 µM in assay [2]; 0.21 µM in assay [3]; 0.335 µM in [5]; 0.508 µM in assay [6]; 0.757 µM in assay [7]. Also, the results for the GI50 in assay [8], in [9] and in assay [10] were 0.244 µM, 0.219 µM and > 100 µM, respectively. The TGI in [1] is 0.899 µM; in assay [2] it was > 100 µM; in assay [3] it was > 100 µM; in [4], > 100 µM; in [5], > 100 µM; in [6], > 100 µM. In addition, the TGI in assay [7] was > 100 µM; in [8], > 100 µM; in assay [9] it was 0.649 µM; in assay [10] it was > 100 µM.
As for `COc1ccc2c(c1)[n+]([O-])c(-c1ccc(Cl)c(Cl)c1)c(N)[n+]2[O-]`, the TGI in [1], in assay [2], in assay [3], in assay [4], in [5] and in [6] was > 100 µM in each case. The TGI in assay [7] is > 100 µM; in [8], > 100 µM; in assay [9], 68.6 µM; in assay [10] it was 46.4 µM.
Turning to `COc1ccc(-c2nc(N)nc(-c3cc(C)ccc3O)c2Cl)cc1`, the TGI in [1], in assay [2], in assay [3], in assay [4], in assay [5] and in assay [6] was > 100 µM each time. In addition, the TGI in assay [7], in assay [8], in assay [9] and in assay [10] was > 100 µM in each case.
On to `Nc1ccccc1C#Cc1ccccc1C#CCCCCO`, for which the GI50 in [1] was 21.9 µM; in [2], 12.9 µM; in assay [3] it was 15.9 µM; in [4], 27.4 µM; in [5], 30.5 µM; in assay [6] it was 20.3 µM. Moreover, the GI50 in assay [7] was 33.9 µM; in [8] it was 29.2 µM; in [9] it was 19 µM; in [10], 19.7 µM. The TGI in assay [1] is 77.8 µM; in [2], 26.6 µM; in assay [3] it was 31.1 µM; in [4], 61.3 µM; in assay [5], > 100 µM; in assay [6] it was 49.4 µM. Further, the TGI is > 100 µM in [7], 81.2 µM in assay [8], 42.8 µM in assay [9] and 50.9 µM in assay [10].
Take `Cc1ccc(C)c(NC(=O)CCc2n[nH]c(=S)o2)c1`: the TGI in [1], in assay [2], in assay [3], in assay [4], in [5] and in [6] was > 100 µM in each case. The TGI in assay [7], in assay [8], in [9] and in [10] was > 100 µM each time.
For the molecule `C=C(C)[C@@H]1CC[C@]2(C#N)CC[C@]3(C)[C@H](CC[C@@H]4[C@@]5(C)CCCNC(C)(C)[C@@H]5CC[C@]43C)[C@@H]12`, the GI50 in assay [1] is 10.1 µM; in [2], 1.75 µM; in assay [3] it was 1.64 µM; in assay [4] it was 2.61 µM; in assay [5], 1.88 µM; in [6] it was 1.84 µM. For the same molecule, the GI50 was 3.11 µM in assay [7], 1.7 µM in assay [8], 1.67 µM in [9] and 2.27 µM in assay [10]. The TGI was determined as 23 µM in [1]; 3.19 µM in [2]; 3.1 µM in assay [3]; 9.79 µM in [4]; 3.54 µM in assay [5]; 3.38 µM in assay [6]. Moreover, the TGI in assay [7] was found to be 10.4 µM; in [8] it was 3.1 µM; in assay [9] it was 3.11 µM; in assay [10], 4.3 µM.
`COc1ccccc1OCC(COC(=O)Nc1ccc(C)cc1)OC(=O)Nc1ccc(C)cc1` (centres undefined): the TGI in assay [1] was > 100 µM; in assay [2], 31.3 µM; in assay [3], 38.3 µM; in [4], 67.5 µM; in assay [5], 30.3 µM; in assay [6], 38.4 µM. The TGI came to 46.2 µM in assay [7], 49 µM in assay [8], 37.7 µM in assay [9] and 49.7 µM in [10].
Turning to `CCOC(=O)c1cc2cc([N+](=O)[O-])ccc2oc1=O`, the TGI in assay [1], in assay [2], in [3], in assay [4], in [5] and in [6] was > 100 µM throughout. Besides, the TGI in assay [7], in assay [8], in [9] and in assay [10] was > 100 µM in each case.
